Assay in all cases: NCI tumour cell line growth inhibition, 48 h
Test [1] deals with SF-295 CNS.
The subject of test [2] is SF-539 CNS.
Test [3] has as its system RXF 393 renal.
The test system of test [4] is SK-MEL-2 melanoma.
In test [5] the test system is DU-145 prostate.
For test [6], the system named is OVCAR-4 ovarian.
The subject of test [7] is MDA-N.
In test [8] the test system is CAKI-1 renal.
Test [9] concerns MCF7 breast.
Test [10] deals with SF-268 CNS.
In test [11] the test system is UACC-62 melanoma.

The values below come from PubChem BioAssay (NCI).

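Each compound was tested at five concentrations against cells in 96-well plates for 48 hours. TGI: concentration producing complete growth inhibition.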

For the molecule `Cc1ccc2c3c1O[C@H]1c4nc5ccccc5cc4C[C@@]4(O)[C@@H](C2)N(CC2CC2)CC[C@]314`, the TGI in test [1] stood at 20.8 µM; in [2], 19.4 µM; in test [3], 21.1 µM; in test [4], 35.5 µM; in test [5], 69 µM; in test [6], 46 µM. The TGI in test [7] was found to be 25.4 µM; in test [8], 32.7 µM; in test [9] it was 22.3 µM; in [10], 25.6 µM; in test [11] it was 23.5 µM.

On to `Cc1ccc2[nH]c(=O)c(-c3cnc(=O)[nH]n3)c(O)c2c1`, for which the TGI in [1], in [2], in test [3], in [4], in test [5] and in [6] was more than 100 µM each time. Moreover, the TGI in [7], in test [8], in [9], in test [10] and in test [11] was more than 100 µM throughout.

In the case of `CCn1c2c(c3c(C(=O)OC)c(O)ccc31)C(=O)c1ccccc1C2=O`, the TGI was 47.1 µM in test [1]; 36 µM in test [2]; 52.6 µM in test [3]; 30.5 µM in test [4]; 38.9 µM in test [5]; 37.5 µM in test [6]. In addition, the TGI worked out at 29.9 µM in test [7], 94.6 µM in test [8], 70.8 µM in test [9] and 69.6 µM in test [10].

Regarding `O=C1/C(=C/c2cccs2)N=C(c2ccccc2)N1C1Nc2cc3c(cc2S1)NC(N1C(=O)/C(=C/c2cccs2)N=C1c1ccccc1)S3` (centres undefined), the TGI in test [1] is more than 100 µM; in test [2] it was 31.3 µM; in test [3], 78.8 µM; in test [4], 36.9 µM; in [5], more than 100 µM; in [6] it was 96.9 µM. The TGI in [7] is 41 µM; in test [8], more than 100 µM; in [9], more than 100 µM; in [10], 47.5 µM.

With `CN(C)Cc1cc(C(=O)O)cc(CN(C)C)c1O`, the TGI in [1], in [3], in test [4], in test [5], in [6] and in test [7] was more than 100 µM throughout. Also, the TGI in [8], in [9], in [10] and in [11] was more than 100 µM each time.

In the case of `O=c1[nH]cnc2c1ncn2[C@H]1CO[C@@H](CO)[C@@H]1O`, the TGI in [1], in test [2], in test [3], in test [4], in [5] and in [6] was more than 100 µM in each case. Moreover, the TGI in [7], in test [8], in test [9], in test [10] and in test [11] was more than 100 µM in each case.

For `CC(C)n1c(=O)c2nn3c(=O)n(C(C)C)c(=O)c3nn2c1=O`, the TGI in test [1], in test [2], in test [3], in [4], in test [5] and in test [6] was more than 100 µM throughout. The TGI in [7], in test [8], in test [9], in test [10] and in test [11] was more than 100 µM each time.

With `COc1ccc(N=C/C=C/Nc2ccc(OC)cc2)cc1`, the TGI was 21.6 µM in test [1]; 24.1 µM in test [2]; 18.5 µM in test [3]; 31 µM in [4]; 32.9 µM in test [5]; 9.99 µM in test [6]. In addition, the TGI in [7] is 14.4 µM; in test [8] it was 12.5 µM; in test [9], 16.3 µM; in [10] it was 21.3 µM; in [11] it was 27.5 µM.

Consider `CN(C)c1ccc(C(c2ccc(N(C)C)cc2)c2ccc([N+](=O)[O-])cc2)cc1`, for which the TGI in test [1], in test [2], in test [3], in test [4], in [5] and in test [6] was more than 100 µM in each case. For the same molecule, the TGI in [7], in test [8], in test [9], in test [10] and in test [11] was more than 100 µM throughout.

As to `COc1ccc2c(c1)CC[C@@H]1[C@@H]2CC[C@]2(C)/C(=N/OCCN3CCCCC3)CC[C@@H]12`, the TGI in test [1] is 12.6 µM; in [2], 7.64 µM; in test [3] it was 8.17 µM; in test [4] it was 18.7 µM; in test [5] it was 14.7 µM; in [6] it was 27.2 µM. Moreover, the TGI in test [7] is 5.9 µM; in [8], 4.17 µM; in test [9], 21.8 µM; in test [10], 24.7 µM; in [11], 3.68 µM.

In the case of `COC(=O)/C=C1/OC(c2ccccc2)=C(Cl)C1=O`, the TGI is more than 65.1 µM in [1]; 47.1 µM in test [2]; 35.9 µM in test [3]; 45.8 µM in [4]; more than 76.2 µM in test [5]; 39 µM in test [6]. In addition, the TGI in test [7] is 43 µM; in [8], 32.7 µM; in test [9] it was 37.5 µM; in test [10], 48.1 µM; in [11] it was 38.8 µM.

Consider `Cn1c2ccccc2n2c3nc4ccccc4nc3c(C#N)c12`, for which the TGI in test [1], in test [2], in [3], in test [4], in test [5] and in test [6] was more than 100 µM each time. The TGI in test [7], in test [8], in test [9], in [10] and in [11] was more than 100 µM throughout.
